The structures appear in SMILES notation.

In assay [1] the test system is HeLa cells (GFP:tubulin, SiR-tubulin or GFP-tagged ch-TOG). The assay can be described thus: Live imaging of spindles. Format: cell-based, human. An excerpt: Bars show standard deviation. […] The bars indicate standard deviation. […] Bars show standard deviation. […] Bars show standard deviation. […] The scale bar for all cells is 10 μm.
For assay [2], the system named is HFF1 cells. As to the kind of experiment: Percentage of mitotic cells, paclitaxel +/- C75. The format is cell-based. The conditions noted are these: 200 nM C75 + paclitaxel. The protocol: FIG. 3A) is a line graph showing cytotoxicity of HeLa cells after treatment with varying concentrations of C75+/−a subthreshold dose of paclitaxel (Taxol™; 3 nM). The IC50 is shown by the dotted line. Bars show standard deviation. FIG. 3B) is a line graph showing the percentage of mitotic HeLa or HFF1 cells treated with a range of paclitaxel concentrations+/−C75 as indicated. The bars indicate standard deviation. FIG. 3C) is a series of bar graphs showing the proportion of HCT 116 cells with bipolar aligned (grey), bipolar misaligned (dark grey), multipolar/fragmented (light grey, top portion of each bar) or monopolar (black) spindles 7 hours after treatment with control (DMSO), varying concentrations of paclitaxel or C75, or both as indicated (n=691; N=3). The bars show standard deviation. The combination treatments were compared to paclitaxel and C75 on their own by calculating ratios varying from the predicted ratio, and found to synergize at 100 and 200 nM. FIG. 3D) is bar graph showing the average distance between centrosome fragments in HCT116 cells after treatments as shown. While centrosome fragments moved closer together with increased concentrations of paclitaxel, they moved further apart with increased concentrations of C75 (n=105; N=3). […]

In assay [3] the test system is A549 spheroids. As to the kind of experiment: Multicellular tumour spheroids. Format: cell-based, human. The protocol:
(§1) FIGS. 5A, 5B, 5C, 5D, 5E, 5F, 5G, 5H, 5I, 5J, 5K, 5L and 5M show how C75 disrupts or reduces the growth of HeLa, HCT116 and A549 spheroids. FIG. 5A) images show HeLa spheroids over time (3 days) before and after treatment with control (1 μM C87; n=10), 250 nM (n=6) or 500 nM (n=10) of C75. The scale bar is 100 μm. FIG. 5B) is a series images of HeLa spheroids after three days of treatment with control (500 nM C87) or 500 nM C75. The spheroids were stained for fluorescein diacetate (to detect live cells) and propidium iodide (to detect dead cells). […] The scale bar is 100 μm. FIG. 5C) is a line graph showing the change in spheroid area (μm^2) for each day and treatment as indicated. Bars show standard deviation and the asterisks are p<0.05 as determined by the student's t test. FIG. 5D) images show HeLa spheroids over 3 days before and after treatment with empty nanoparticles (control; n=3) or 250 nM of nanoparticle-encapsulated C75 (n=3). The scale bar is 100 μm. […] Bars show standard deviation and the asterisks are p<0.05 as determined by the student's t test. FIG. 5F) is a series of images of HCT116 spheroids treated with control (1 μM C87; n=10), 500 nM C75 (n=10) and 1 μM C75 (n=10). […] Bars show standard deviation and the asterisks are p<0.05 as determined by the student's t test. […] Bars show standard deviation and the asterisks are p<0.05 as determined by the student's t test. […]

Assay [4] has as its system HeLa spheroids. As to the kind of experiment: Multicellular tumour spheroids. Format: cell-based, human. How it is done: as §1

Take `COc1ccc(S(=O)(=O)N2Cc3ccccc3-c3sc(Br)cc32)cc1` [Compound C75]: the “time until spindle poles collapse together in metaphase cells” value in assay [1] (100-300 nM) was in the range of 1 to 2 min. For the same molecule, in assay [1] (HeLa live imaging), the “time after exposure until centrosomes fragmented or declustered and microtubules collapsed” value lay in the range of 4 to 6 min; the “time after washout until microtubule polymers grew back” value fell in the range of 20 to 30 min. Also, the “microtubule polymers without washout” value in assay [1] (HeLa live imaging, drugs not washed out) is listed as “microtubule polymers grow back to form multipolar spindles”. Further, the “effect on non-cancerous cells treated with paclitaxel” value in assay [2] is reported as “protective effect”. In addition, the effect on spheroids entry in assay [3] was “regress the growth”. In assay [4], the effect on spheroids result is listed as “disrupt”.

The record behind these values is patent US20200276181A1, “THIENOISOQUINOLINES AND THEIR DERIVATIVES FOR TARGETING TUBULIN, CH-TOG, AURORA A KINASE, TPX2, CDK5RAP2 AND/OR ASPM” (VALORBEC, SEC, priority 2017, published 2020).
